US20260306403A1, “MODIFIED LIPOSOME FOR DRUG DELIVERY, USE OF LIPOSOME FOR DRUG DELIVERY, ESPECIALLY WITH ANTI-CANCER ACTIVITY, AND WAYS TO LOAD LIPOSOME WITH DRUGS, ESPECIALLY WITH ANTI-CANCER ACTIVITY” (BS BIOTECHNA SPOLKA AKCYJNA, priority 2023, published 2026)

Assays:
[1] = phase I and II clinical trials; cited from earlier work
[2] = Acute toxicity test on Zebrafish larvae, emetine and 14 pH EM liposomes, 24 and 48 h; design: species or system Zebrafish (Danio rerio); conditions: in vivo, 48 h exposure, 2 dpf larvae, calculated for emetine, read-out: half maximal lethal concentration (LC50)
Description: In order to compare the toxicity of emetine and 14 pH EM liposomes with emetine, an acute toxicity test was conducted on Zebrafish (Danio rerio). The test was designed to determine the acute or lethal toxicity of the formulations on the embryonic stages of the fish. Briefly, Zebrafish 2 dpf larvae were treated with emetine and 14 pH EM liposomes with emetine for 24 and 48 hours at concentrations ranging from 0.73 μM to 125 μM calculated for emetine. […] The water for embryo culture and solution preparation was embryo culture medium (E3 solution: 5 mmol/L NaCl, 0.17 mmol/L KCl, 0.33 mmol/L CaCl2 and 0.33 mmol/L MgSO4, containing no methylene blue, and with a pH value of approximately 7.2). The experiment was carried out in 24-well plates, 5 embryos per well, 10 per group. The plate was covered and kept in an incubator set at 28±0.5° C. with a light/dark period of 12/12 hours. During the exposure period, larvae were tracked every 24 hours and four visual observations, including coagulation of fertilised eggs, lack of somite formation, lack of separation of tail bud from yolk sac and lack of heartbeat, were recorded as indicators of mortality.

[3] = tested on: Zebrafish larvae; test: Absorption of fluorescently labelled emetine, free and in pH-type liposomes, by Zebrafish larvae; format: in vivo
Description: To compare the uptake of emetine and pH-type liposomes with emetine, Zebrafish larvae were exposed to fluorescently labelled free emetine and fluorescently labelled emetine encapsulated in pH-type liposomes (synthesis identical to that of 14pHEM) for 4 and 48 h in a concentration range from 0.73 μM to 14.7 μM for emetine and 4.41 μM to 8.82 μM for pH-type liposomes with fluorescent emetine per emetine. Photographs of fish from each group were taken at the final time point to monitor the intensity of fluorescence from absorbed emetine. A Discovery V8 stereoscopic optical microscope and Zeiss equipment were used for the observations.

[4] = Acute toxicity test on Zebrafish larvae, emetine / BEM and staurosporine / BST liposomes, 96 h; format: in vivo, Zebrafish (Danio rerio); conditions: 96 h incubation, staurosporine free or in BST
Description: In order to compare the toxicity of emetine and staurosporine with the same drugs loaded into BpH liposomes, an acute toxicity test was conducted on Zebrafish (Danio rerio). The test was designed to determine the acute or lethal toxicity of the chemicals on the embryonic stages of the fish. Briefly, zebrafish larvae were treated with emetine and […] liposomes or staurospoine and staurosporine with BST liposomes for a period of 96 hours.
The embryo culture fluid and solution preparation was embryo culture medium (E3 solution: 5 mmol/L NaCl, 0.17 mmol/L KCl, 0.33 mmol/L CaCl2 and 0.33 mmol/L MgSO4, containing no methylene blue, and with a pH value of approximately 7.2). The experiment was carried out in 24-well plates, 5 embryos per well, 10 per group. The plate was covered and kept in an incubator set at 28±0.5° C. with a light/dark period of 12/12 hours. During the exposure period, larvae were tracked every 24 h and four visual observations, including coagulation of fertilised eggs, lack of somite formation, lack of separation of tail bud from yolk sac and lack of heartbeat, were recorded as indicators of mortality. At the end of the exposure period (96 hpf), acute toxicity was determined based on a positive result from any of the four recorded visual observations and the LC50 was calculated. Liposomes alone without drug loading were also tested.

SMILES | therapeutic index [1] | toxicity on increasing the dose [1] | LC50 at 48 h [2] | location of absorbed emetine in larvae ([3]; fluorescence microscopy) | uptake / amount of absorbed emetine ([3]; free 1.47, 3.67, 7.35 μM, in liposomes 4.41 and 8.82 μM) | LC50 at 96 h [4]
CC[C@H]1CN2CCc3cc(OC)c(OC)cc3[C@@H]2C[C@@H]1C[C@H]1NCCc2cc(OC)c(OC)cc21 [emetine] | very limited | cardiac toxicity | 5640 nM | within the yolk of the larvae, especially in the liver and intestine region | increases with dose | –
CN[C@@H]1C[C@H]2O[C@@](C)([C@@H]1OC)n1c3ccccc3c3c4c(c5c6ccccc6n2c5c31)C(=O)NC4 [staurosporine] | – | – | – | – | – | 17 nM
